This note sets out measurements from patent US10517863B2, “Trilobine and its natural analogs for use as a drug” (PIERRE FABRE MEDICAMENT, priority 2015, dated 2019).

Assay [1] concerns panel of cancer cell lines. The experiment in a line: Anti-proliferative activity (ATPLite), whole panel. Format: cell-based. The note with it: Homo sapiens; range over the panel. The protocol:
(§1) To measure the anti-proliferative properties of tested molecules, 2×10^4 cells are seeded at day 0 in a 96 wells plate. The compounds to be tested, stored at −20° C. as 10^−2 M stock solution in 100% DMSO, are freshly diluted on day 1 in the cell medium, before adding a dose range of 3.2 nM to 10 μM to the cells. The cell viability is assessed using the ATPLite kit from Perkin (ATPlite 1 Step Luminescence Assay System, ref 3016739), following the provider instructions. The raw data are analyzed with GraphPad Prism software (v4.03) to generate IC50 values corresponding to the compound concentrations giving 50% reduction in cell viability. The values presented are the mean results of at least two independent experiments. The standard errors are indicated.
(In ATP-based viability assays light output follows the ATP content of the culture.)

For assay [2], the system named is CMV promoter in KG-1 Luc cells. The experiment in a line: CMV promoter analysis by NOMe-Seq: DNA methylation and nucleosome occupancy. Format: cell-based, human. The following applies: at 5 μM, 24 h. The protocol:
Using the Nucleosome Occupancy and Methylome Sequencing (NOMe-Seq) technique, the methylation status of the CMV promoter and the position of the nucleosomes on such promoter were both analysed.
NOMe-seq is a modified version of the methylation-dependent single promoter assay described by Miranda et al. (Curr Protoc Mol Biol. 2010 21.17.1-16) and the methylase-based DNA assay was performed as previously described with minor modifications (Hochedlinger K, Plath K 2009; Sharma et al. 2010, You et al. 2011, Kelly et al. 2012). After nuclei extraction, GpC methyltransferase (M.CviPI; New England Biolabs) reactions were done in M.CviPI reaction buffer. GpC methyltransferase treatment was followed by DNA extraction, sodium bisulfite conversion, PCR amplification of the region of interest, cloning, and sequencing of individual clones to reveal the structure of single replicas as functional units. After treatment with the compounds or with DMSO, KG-1 Luc cells were centrifuged for 5 min at 500×g. Cell pellets were washed in ice-cold PBS, resuspended in 1 mL of ice-cold nuclei buffer [10 mM Tris (pH 7.4), 10 mM NaCl, 3 mM MgCl2, 0.1 mM EDTA, and 0.5% Nonidet P-40, plus protease inhibitors] per 2×10^6 cells, and incubated on ice for 10 min. […]

Assay [3] concerns P16 expression in colon cancer cells HCT116. The experiment in a line: P16 reexpression by RT-qPCR. In kind it is cell-based, human. The following applies: at 100 nM, at 3 days. For orientation: Quantitative PCR measures a nucleic acid by following its amplification.
The next assay concerns HCT-116. The experiment in a line: Anti-proliferative activity (ATPLite). In kind it is cell-based. The following applies: Homo sapiens; HCT-116, Colorectal; +/− standard error; read-out: Antiproliferative activity EC50. As to the method: as §1
For another assay, the system named is KG-1. The experiment in a line: Anti-proliferative activity (ATPLite). In kind it is cell-based. The following applies: Homo sapiens; KG-1, Leukaemia; +/− standard error; read-out: Antiproliferative activity EC50. As to the method: as §1
For the next assay, the system named is Karpass299. The experiment in a line: Anti-proliferative activity (ATPLite). Format: cell-based. The following applies: Homo sapiens; Karpass299, Lymphoma; +/− standard error; read-out: Antiproliferative activity EC50. The protocol: as §1

On to `COc1ccc2cc1Oc1ccc(cc1)C[C@@H]1NCCc3cc(OC)c4c(c31)Oc1cc3c(cc1O4)CCN(C)[C@H]3C2` [Compound 1, Trilobine], for which the half-inhibitory concentration (IC50) (commonly the point on the concentration scale where inhibition reaches its midpoint) in assay [1] lay within 900 to 6800 nM. The “Chromatin accessibility, KG1 CMV-Luc model” value in assay [2] was found to be 1.9 ± 0.1. In assay [2], the “DNA demethylation, KG1 CMV-Luc model” value is recorded as −37 ± 8%. In addition, the “Rexpression (RT qPCR) P16/HCT116 expression fold to non-treated cells” value in assay [3] is 5.0 ± 2.14 fold. Further, the EC50 (as a rule, the concentration that produces a half-maximal response) was 1200 nM in the assay on HCT-116, 2200 nM in the assay with KG-1 and 1300 nM in the assay with Karpass299.
